The values below come from patent publication US20260022143A1, “Cyclic Peptide Inhibitors of IL-23” (JANSSEN PHARMACEUTICA NV, priority 2022, published 2026).

The target of one series is T1, IL-23R (Homo sapiens, UniProt Q5VWK5).
T1 construct: host or cells: HEK293
T1 sequence (Q5VWK5 24-629): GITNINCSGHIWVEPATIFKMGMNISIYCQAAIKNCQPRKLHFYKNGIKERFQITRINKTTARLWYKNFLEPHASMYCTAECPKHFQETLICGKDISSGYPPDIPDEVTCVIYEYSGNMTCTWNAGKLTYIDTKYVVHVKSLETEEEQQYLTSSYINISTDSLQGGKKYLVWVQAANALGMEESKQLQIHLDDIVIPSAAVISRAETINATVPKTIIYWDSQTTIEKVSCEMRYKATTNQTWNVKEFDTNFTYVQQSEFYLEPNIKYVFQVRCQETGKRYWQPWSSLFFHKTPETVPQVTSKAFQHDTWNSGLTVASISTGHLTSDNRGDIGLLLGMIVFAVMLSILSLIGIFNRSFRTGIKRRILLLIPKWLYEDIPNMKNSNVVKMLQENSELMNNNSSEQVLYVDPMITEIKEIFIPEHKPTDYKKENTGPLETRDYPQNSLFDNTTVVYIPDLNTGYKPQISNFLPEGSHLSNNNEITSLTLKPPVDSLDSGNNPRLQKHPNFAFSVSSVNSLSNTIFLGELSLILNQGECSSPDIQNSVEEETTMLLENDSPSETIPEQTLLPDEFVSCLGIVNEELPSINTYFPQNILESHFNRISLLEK
As to the kind of experiment: IL23R Reporter Assay. The class given is cell-based. The note with it: HEK293 cells containing IL-23R, IL-12RP1 and STAT-inducible firefly luciferase reporter; 10 ng/mL IL-23 (EC90); 5 h at 37° C.; read-out: IL23R Reporter Assay.

Series [1] can be described thus: Exposed Polar Surface Area (EPSA). To be noted: SFC on Chirex 3014 column; sample 1 mM DMSO stock; read-out: EPSA. In kind it is physicochemical. In a few lines: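 Retention-based polarity: supercritical CO2 with 20 mM ammonium formate in MeOH (5–60%, 20%/min), Chirex 3014 column, 35 °C. Calibrated against 8 standards to give EPSA (Å^2); each sample measured twice.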

Starred links: 1 amine or outer side, 2 acyl side, 3 side chain; linkers in the order of their positions; H or OH if unused. Positions of bridges follow the written chain, without caps; N, C: chain ends. Non-standard residues stand in square brackets, D forms with d. Residues, ends and D or L forms follow the SMILES beside them. Groups on a side chain read outwards from the residue. *: point of attachment. Me3N+(CH2)2O(CH2)2O(CH2)2CO = C[N+](C)(C)CCOCCOCCC(=O)*; Trp(7-Me) = Cc1cccc2c(C[C@H](N)C(=O)O)c[nH]c12; Abu(4-yl) = O=C([C@H](CC[*:3])N[*:1])[*:2]; γGlu = O=C(O)[C@H](CCC(=O)[*:2])N[*:1]; 2Nal = N[C@@H](Cc1ccc2ccccc2c1)C(=O)O; AEF = NCCOc1ccc(C[C@H](N)C(=O)O)cc1; 3Pal = N[C@@H](Cc1cccnc1)C(=O)O; Lys(Me) = CNCCCC[C@H](N)C(=O)O; Pen = CC(C)(S)[C@H](N)C(=O)O; X55 = OC1(C(F)(F)F)CCN(*)CC1; Lauroyl = CCCCCCCCCCCC(=O)*; Thp = NC1(C(=O)O)CCOCC1; X3 = C[N+](C)(C)CCCCC*; AEEA = NCCOCCOCC(=O)O; Sar = CNCC(=O)O

Consider `CC(=O)NCCCC[C@@H]1NC(=O)[C@H](Cc2c[nH]c3c(C)cccc23)NC(=O)[C@H]([C@@H](C)O)NC(=O)[C@H](CC(N)=O)NC(=O)[C@@H](NC(C)=O)C(C)(C)SSC(C)(C)[C@@H](C(=O)N[C@@H](Cc2ccc(OCCN)cc2)C(=O)N[C@@H](Cc2ccc3ccccc3c2)C(=O)NC2(C(=O)N[C@@H](CCC(=O)O)C(=O)N[C@@H](CC(N)=O)C(=O)N[C@@H](Cc3cccnc3)C(=O)N(C)CC(=O)N3CCC(O)(C(F)(F)F)CC3)CCOCC2)NC1=O` [compound 135] (Ac-[Pen]NT[Trp(7-Me)]K(Ac)[Pen][AEF][2Nal][Thp]EN[3Pal][Sar]-X55; disulfide 1-6 (inferred)), for which, on IL-23R, the IC50 was 3.7 nM. Besides, the EPSA in series [1] was determined as 171 A^2.

Consider `CC(=O)N(C)CCCC[C@@H]1NC(=O)[C@H](Cc2c[nH]c3c(C)cccc23)NC(=O)[C@H]([C@@H](C)O)NC(=O)[C@H](CC(=O)N(C)C)NC(=O)[C@@H](NC(=O)CCOCCOCC[N+](C)(C)C)CCSC[C@@H](C(=O)N[C@@H](Cc2ccc(OCCCCC[N+](C)(C)C)cc2)C(=O)N[C@@H](Cc2ccc3ccccc3c2)C(=O)NC2(C(=O)N[C@@H](CCCCN(C)C(C)=O)C(=O)N[C@@H](CC(N)=O)C(=O)N[C@@H](Cc3cccnc3)C(=O)N(C)CC(=O)N(C)C)CCOCC2)NC1=O` [compound 523, cPEG3aCO-Abu(1)-N(N(Me)2)-T-7MeW-K(NMeAc)-C(1)-TMAPF-2Nal-THP-K(NMeAc)-N-3Pya-Sar-CON(Me)2] ({Me3N+(CH2)2O(CH2)2O(CH2)2CO}-[Abu(4-yl)]D(NMe2)T[Trp(7-Me)][Lys(Me)](Ac)CY(X3)[2Nal][Thp][Lys(Me)](Ac)N[3Pal][Sar]-NMe2; thioether 1-6), for which, at IL-23R, the IC50 was found to be 5.2 nM. For the same molecule, the EPSA in series [1] was found to be 154 A^2.

Turning to `CCCCCCCCCCCC(=O)N[C@@H](CCC(=O)NCCOCCOCC(=O)NCCOCCOCC(=O)NCCCC[C@@H]1NC(=O)[C@H](Cc2c[nH]c3c(C)cccc23)NC(=O)[C@H]([C@@H](C)O)NC(=O)[C@H](CC(=O)N(C)C)NC(=O)[C@@H](NC(=O)CCOCCOCC[N+](C)(C)C)C(C)(C)SSC(C)(C)[C@@H](C(=O)N[C@@H](Cc2ccc(OCCCCC[N+](C)(C)C)cc2)C(=O)N[C@@H](Cc2ccc3ccccc3c2)C(=O)NC2(C(=O)N[C@@H](CCCCNC(=O)COCCOCCNC(=O)COCCOCCNC(=O)CC[C@H](NC(=O)CCCCCCCCCCC)C(=O)O)C(=O)N[C@@H](CC(N)=O)C(=O)N[C@@H](Cc3cccnc3)C(=O)N(C)CC(=O)N(C)C)CCOCC2)NC1=O)C(=O)O` [compound 400, cPEG3aCO-Pen(3)-N(N(Me)2)-T-7MeW-K(PEG2PEG2gEC12)-Pen(3)-TMAPF-2Nal-THP-K(PEG2PEG2gEC12)-N-3Pya-Sar-CON(Me)2] ({Me3N+(CH2)2O(CH2)2O(CH2)2CO}-[Pen]D(NMe2)T[Trp(7-Me)]K([AEEA-AEEA-γGlu-Lauroyl])[Pen]Y(X3)[2Nal][Thp]K([AEEA-AEEA-γGlu-Lauroyl])N[3Pal][Sar]-NMe2; disulfide 1-6), the IC50 at IL-23R is 290 nM. For the same molecule, the EPSA in series [1] is 173 A^2.

Turning to `CC(=O)N(C)CCCC[C@@H]1NC(=O)[C@H](Cc2c[nH]c3c(C)cccc23)NC(=O)[C@H]([C@@H](C)O)NC(=O)[C@H](CC(=O)N(C)C)NC(=O)[C@@H](NC(=O)CCOCCOCC[N+](C)(C)C)CSSC[C@@H](C(=O)N[C@@H](Cc2ccc(OCCCCC[N+](C)(C)C)cc2)C(=O)N[C@@H](Cc2ccc3ccccc3c2)C(=O)NC2(C(=O)N[C@@H](CCCCN(C)C(C)=O)C(=O)N[C@@H](CC(N)=O)C(=O)N[C@@H](Cc3cccnc3)C(=O)N(C)CC(=O)N(C)C)CCOCC2)NC1=O` [compound 483, cPEG3aCO-C(3)-N(N(Me)2)-T-7MeW-K(NMeAc)-C(3)-TMAPF-2Nal-THP-K(NMeAc)-N-3Pya-Sar-CON(Me)2] ({Me3N+(CH2)2O(CH2)2O(CH2)2CO}-CD(NMe2)T[Trp(7-Me)][Lys(Me)](Ac)CY(X3)[2Nal][Thp][Lys(Me)](Ac)N[3Pal][Sar]-NMe2; disulfide 1-6), at IL-23R, the IC50 stood at 3.8 nM. Further, the EPSA in series [1] turned out to be 165 A^2.
